Tested on: Crossbred Suffolk Sheep
Experiment: Sheep transforaminal lumbar interbody fusion model
Type: in vivo
Procedure: As in example 1, PTH (i.e. TGplPTH1-34) was tested alone or with granular material. The same materials were used as in example 1, and the preparation of the product followed the same protocol as for example 1, but in this study the concentrations of TGplPTH1-34 ranged from 0.2 mg/mL to 0.7 mg/mL of the fibrin matrix. The treatment was placed only inside the interbody cage. No additional test material was placed around the cage, as in example 1.
A total of 28 Crossbred Suffolk Sheep (Castrated Weathers) with an average weight of 57 kg and age ranging from 3 to 6 years of age were chosen as experimental animals. The animals were divided into 7 groups. One group (the positive control group) was treated with autograft and the remaining groups were treated with a fibrin matrix with or without granular material, containing different concentrations of TGplPTH1-34. Groups were followed for 16 weeks, after which the animals were sacrificed. Animal care and use was conducted in accordance with federal regulations as outlined in the Animal Welfare Act. Surgery, perioperative care, housing, sanitation practices, husbandry, and veterinary care followed the recommendations of the NIH Guide for the Care and Use of Laboratory Animals (HHS, NIH Pub. No. 85-23, 1985). Animal care personnel were qualified, through training and experience, to perform required duties. […]

CC[C@H](C)[C@H](NC(=O)[C@H](CCC(=O)O)NC(=O)[C@H](CO)NC(=O)[C@@H](NC(=O)[C@H](CO)NC(=O)[C@H](CCCNC(=N)N)NC(=O)[C@H](CC(N)=O)NC(=O)[C@H](CCCCN)NC(=O)[C@H](Cc1ccc(O)cc1)NC(=O)[C@H](CC(C)C)NC(=O)[C@@H]1CCCN1C(=O)[C@H](CO)NC(=O)[C@@H](NC(=O)[C@H](CCC(N)=O)NC(=O)[C@H](CCC(=O)O)NC(=O)[C@H](CCC(N)=O)NC(=O)[C@@H](N)CC(N)=O)C(C)C)C(C)C)C(=O)N[C@@H](CCC(N)=O)C(=O)N[C@@H](CC(C)C)C(=O)N[C@@H](CCSC)C(=O)N[C@@H](Cc1c[nH]cn1)C(=O)N[C@@H](CC(N)=O)C(=O)N[C@@H](CC(C)C)C(=O)NCC(=O)N[C@@H](CCCCN)C(=O)N[C@@H](Cc1c[nH]cn1)C(=O)N[C@@H](CC(C)C)C(=O)N[C@@H](CC(N)=O)C(=O)N[C@@H](CO)C(=O)N[C@@H](CCSC)C(=O)N[C@@H](CCC(=O)O)C(=O)N[C@@H](CCCNC(=N)N)C(=O)N[C@H](C(=O)N[C@@H](CCC(=O)O)C(=O)N[C@@H](Cc1c[nH]c2ccccc12)C(=O)N[C@@H](CC(C)C)C(=O)N[C@@H](CCCNC(=N)N)C(=O)N[C@@H](CCCCN)C(=O)N[C@@H](CCCCN)C(=O)N[C@@H](CC(C)C)C(=O)N[C@@H](CCC(N)=O)C(=O)N[C@@H](CC(=O)O)C(=O)N[C@H](C(=O)N[C@@H](Cc1c[nH]cn1)C(=O)N[C@@H](CC(N)=O)C(=O)N[C@@H](Cc1ccccc1)C(=O)O)C(C)C)C(C)C [TGplPTH1-34]
toxicity during the treatment period (any of the doses (0.2-0.7 mg/mL) or formulations, 16 weeks): No toxicity was observed | histopathologic review (in vivo): no signs of osseous pathology
